Measurements reported in patent publication US20110275094A1, “PHOSPHORYLATED FMS-RELATED TYROSINE KINASE 3 BIOMARKER ASSAY” (priority 2008, published 2011).
Like-named read-outs stand apart in the source and are kept apart here.

How the values were obtained:
[1] = test system: peripheral blast / bone marrow blast
Experimental: The samples were then flash frozen in −70° C. A small number of patient samples were frozen unlysed and lysed afterwards.

[2] = AC220 phase I study, tolerability; type: in vivo; conditions: QD, patients of phase I study
Text: Thus, the pFLT3 ELISA of the invention successfully yielded useful pharmacodynamic data that not only guided the decision to change the dosing schedule from intermittent to continuous, but also guided the selection of the starting dose level for the 28-day continuous schedule, when information on dose limiting toxicity or maximum tolerated dose was still unavailable.

With `CC(C)(C)c1cc(NC(=O)Nc2ccc(-c3cn4c(n3)sc3cc(OCCN5CCOCC5)ccc34)cc2)no1` [AC220] as the compound, how does the “bone marrow blast percentage” value ([1]; Patient A) read?
The value was “appeared to reduce bone marrow blast percentage”.

What about the protocol defined response ([1]; Patient D) of the same compound?
The protocol defined response was “CRp/PR”.

What about the protocol defined response ([1]; Patient E) of the same compound?
Its protocol defined response is “CRi”.

What about the maximum tolerated dose [2] of the same compound?
The maximum tolerated dose was > 300 mg per day.
